Measurements published in patent US8492344B2, “PDK inhibitor compounds and methods of use thereof” (University of Florida Research Foundation, priority 2008, dated 2013).

What was measured:
PDH activity = PDH activity in human fibroblast cultures (14CO2 from [1-14C]-pyruvate); format: cell-based; details: for PDH activity stimulation at 0.25 mM: tested at 0.25 mM, data not shown; for Potency relative to DCA in improving PDH activity at the lowest concentration tested: dose-response 0.01 to 5 mM, lowest concentration printed as 0.01 μM; for Potency relative to DCA in increasing PDH activity / Change of PDH activity at 5 mM: dose-response; for Potency relative to DCA in increasing PDH activity: 0.01 mM; for PDH activity vs DMSO control (result in words): initial studies, maximum feasible dose (0.25 to 2 mM), 24 h, 3 cell lines, p≦0.05
Experimental: PDH complex activity was measured by the rate of ^14C formation from [1-^14C]-labeled pyruvate, as described in Mitochondrion 6:126-135 (2006) or Mitochondrion. 7: 253-259 (2007). Fibroblasts harvested by trypsinization from a confluent T-75 flask were washed in phosphate-buffered saline (PBS) and resuspended in PBS containing the serine protease inhibitors leupeptin and phenylmethylsulfonyl fluoride (PMSF). Cells were incubated for 15 min at 37° C. with DCA. Reactions were halted by addition of a stop solution (25 mM NaF, 25 mM EDTA, 4 mM dithiothreitol, 40% ethanol), and cells were lysed by repeated freezing and thawing. Sixteen aliquots of each fibroblast sample were assayed in test tubes for enzyme activity. Four samples that contained only lysate and water and four samples that also contained thiamine pyrophosphate and coenzyme A were assayed at reaction times of 5 and 10 min. A ^14C-labeled pyruvate aliquot of known specific activity was added to the cell lysates and the test tubes were immediately closed with a rubber stopper. The stopper was outfitted with a center well (Kimble-Kontes, Vineland, N.J.) that contained 1 cm^2 chromatography paper soaked with 100 μl hyamine hydroxide. Reactions were halted by adding stopping buffer. The ^14CO2 evolved due to PDH-mediated catalysis and trapped in the paper was determined by liquid scintillation. PDH specific activity was expressed as nmol ^14CO2 produced/min/mg protein. Excess cell lysate was used to determine total protein.
The compounds (predicted to interact with PDK2) were tested in human fibroblast cultures from three healthy subjects for their effect on PDH activity. DCA and dimethyl sulfoxide (DMSO) were used as positive and vehicle controls, respectively. Drugs were dissolved in DMSO and were used at maximum feasible dose in initial studies (0.25 to 2 mM). For dose-response experiments, concentrations used were: 0.01, 0.05, 0.1, 0.5, 1, and 5 mM. DCA was used as positive control. Cells were exposed to media with DCA, NCI compounds or DMSO vehicle for the final 24 h of culture.
Primary cultures of fibroblasts were grown at 37° C. in a humidified 5% CO2/95% air atmosphere in DMEM supplemented with 20% (v/v) FBS, 100 U/mL penicillin, 100 μg/mL streptomycin, and 6 mM L-glutamine.
Cell lysates treated with DCA or NCI compounds were incubated in a reaction buffer that contained [1-^14C]-pyruvate. PDH activity was measured by quantitation of liberated ^14CO2. (Han et al., 2007. Down-regulation of rat pyruvate dehydrogensae E1a gene by self-complementary adeno-associated virus-mediated small interfering RNA delivery. Mitochondrion. 7: 253-259). Each sample was run in triplicate, with appropriate blanks.

Solubility in DMSO = format: physicochemical

| Solubility in DMSO (Solubility in DMSO) | SMILES | PDH activity stimulation at 0.25 mM (PDH activity) | Potency relative to DCA in improving PDH activity at the lowest concentration tested (PDH activity) | Potency relative to DCA in increasing PDH activity (PDH activity) | Change of PDH activity at 5 mM (PDH activity) | PDH activity vs DMSO control (result in words) (PDH activity) |
| --- | --- | --- | --- | --- | --- | --- |
| poorly soluble in DMSO | O=C(O)CS(=O)(=O)O [Compound 5, 2-sulfoacetic acid] | none of these compounds stimulated PDH activity |  |  |  |  |
|  | O=C(O)Cc1cnc[nH]1 [Compound 14, 2-(3H-imidazol-4-yl)acetic acid] |  | may be more potent than DCA | more potent than DCA | increased PDH activity | significantly increased PDH activity |
|  | C/C(Cl)=C\C(=O)O [Compound 18, (E)-3-chlorobut-2-enoic acid] |  |  |  | significant decrease in PDH activity | significantly increased PDH activity |
|  | CC(=CC(=O)O)C(=O)O [Compound 10, 2-methylbut-2-enedioic acid] |  | may be more potent than DCA | more potent than DCA | significant decrease in PDH activity | significantly increased PDH activity |
| poorly soluble in DMSO | O=C(O)C(=O)C(=O)O [Compound 7, 2-oxopropanedioic acid] | none of these compounds stimulated PDH activity |  |  |  |  |
|  | O=CNCC(=O)O [Compound 25, 2-formamidoacetic acid] |  |  |  |  | significantly increased PDH activity |
|  | CC(O)C(O)C(=O)O (stereo not shown) [Compound 12, 2,3-dihydroxybutanoic acid] |  |  |  |  | significantly increased PDH activity |
|  | C/C=C\C(=O)O [Compound 24, (Z)-but-2-enoic acid] |  |  |  |  | significantly increased PDH activity |
| poorly soluble in DMSO | O=C(O)Cc1nnn[nH]1 [Compound 6, 2-(2H-tetrazol-5-yl)acetic acid] | none of these compounds stimulated PDH activity |  |  |  |  |
